Data as given in patent publication US20110269799A1 (priority 2008, published 2011).
“And” between values parts separate entries of the source, which are not always exact repeats. Equal values may be shown once. Read-outs that look alike come from different tables or passages of the source. Marks after values point to notes of the source that are not given here. Blank lines part the entries; values can stand above or below the compound they belong to.

Assays:
[1] = system: cytochrome P-450 drug metabolizing enzymes; assay: Cytochrome P-450 metabolism, induction and inhibition; type: in vitro ADME
[2] = system: patients with atrial fibrillation
[3] = system: patients with chronic atrial fibrillation; assay: PETRO phase 2 12-week dose finding study, dabigatran etexilate alone or with aspirin vs. warfarin; type: in vivo, human
Text: Primary endpoints were bleeding events and changes in D-dimer. […] Minor bleeding was dose related.

[4] = system: patients with atrial fibrillation at risk of stroke
Text: Median follow-up was 2.0 years and the primary outcome was stroke or systemic embolism.
Patients were recruited from 951 clinical centers in 44 countries. In brief, patients were eligible if they had atrial fibrillation documented on electrocardiogram at screening or within 6 months; and at least one of the following: prior stroke or transient ischemic attack; left ventricular ejection fraction less than 40%; New York Heart Association heart failure symptoms of Class 2 or greater within 6 months; age at least 75 years; or age at least 65 years with diabetes mellitus, hypertension or coronary artery disease.
The time in therapeutic range was calculated by the method of Rosendaal (Rosendaal F R, et al., A method to determine the optimal intensity of oral anticoagulant therapy, Thromb Haemost, 1993, 69:236-239), excluding INRs from the first week and after discontinuations. […] Concomitant use of aspirin (less than 100 mg/day) or other antiplatelet agents was allowed.
Liver function testing was performed monthly during the first year of follow-up.
The primary study outcome was stroke or systemic embolism. The primary safety outcome was major hemorrhage. Secondary outcomes were stroke, systemic embolism and death. Other outcomes were myocardial infarction, pulmonary embolism, transient ischemic attacks, and hospitalizations. The primary net benefit-risk outcome was the composite of stroke, systemic embolism, pulmonary embolism, myocardial infarction, death or major hemorrhage. Stroke was defined as sudden onset of focal neurological deficit consistent with the territory of a major cerebral artery and categorized as ischemic, hemorrhagic or unspecified. Hemorrhagic transformation of ischemic stroke was not considered as hemorrhagic stroke. Intracranial hemorrhage included hemorrhagic stroke and sub-dural or sub-arachnoid hemorrhage. Systemic embolism was an acute vascular occlusion of an extremity or organ documented by imaging, surgery or autopsy. Major bleeding was defined as a reduction in hemoglobin level of at least […] or transfusion of at least 2 units of blood or symptomatic bleeding in a critical area or organ. Life-threatening bleeding was a subset of major bleeding that included fatal bleeding, symptomatic intracranial bleeding, bleeding with hemoglobin decrease of more than […] or requiring transfusion of more than 4 units of blood or requiring inotropic agents or necessitating surgery. All other bleeding was considered minor.
All primary and secondary outcome events were blindly and doubly adjudicated. An international team of adjudicators reviewed documents in local languages after blinding; or documents were translated by a independent group and blinded centrally. All transient ischemic attacks were reviewed to ensure that strokes had not been missed. To detect possible unreported events, symptom questionnaires were regularly administered to patients, and adverse events and hospitalization reports were scrutinized for unreported primary or secondary outcomes.
If maximum of the two p-values was greater than 0.025, the minimum of the two p-values must be less than 0.0125, one-sided, to claim statistical significance. All analyses were based on intention-to-treat.

[5] = individual patients with LFT abnormalities, one patient (age, sex) per table line

Major Bleeds, of these without aspirin, rate ([2]; 150 mg b.i.d.): 3.2 % per year
Major Bleeds, rate ([2]; 150 mg b.i.d.): 4.2 % per year
Major Bleeds, with aspirin, rate ([2]; 150 mg b.i.d.): 8.7 % per year
Major Bleeds, of these without aspirin, rate ([2]; 150 mg q.d.): 6.5 % per year
Major Bleeds, rate ([2]; 150 mg q.d.): 5.1 % per year
Bleeding events ([2]; 300 mg b.i.d.): more than 12 per 100 years
Major Bleeds, of these without aspirin, rate ([2]; 300 mg b.i.d.): 6.3 % per year
Major Bleeds, rate ([2]; 300 mg b.i.d.): 12.2 % per year
Major Bleeds, with aspirin, rate ([2]; 300 mg b.i.d.): 32.7 % per year
Major Bleeds, of these without aspirin, rate ([2]; 300 mg q.d.): 2.1 % per year
Major Bleeds, rate ([2]; 300 mg q.d.): 2.5 % per year
Major Bleeds, with aspirin, rate ([2]; 300 mg q.d.): 3.6 % per year
Major bleeding events (per 100 patient years) ([2]; PETRO-Ex, 150 mg b.i.d., without concomitant aspirin): 3.2%*
LFT abnormalities > 3 xULN (per 100 patient years) ([2]; PETRO-Ex, all doses): 1.7%
Major Bleeds, of these without aspirin, rate ([2]; Total, all doses): 3.2 % per year
Major Bleeds, rate ([2]; Total, all doses): 4.2 % per year
Major Bleeds, with aspirin, rate ([2]; Total, all doses): 8.5 % per year
Major bleeding events ([3]; 300 mg b.i.d. plus ASA groups, 12 weeks): 6%
Minor bleeding ([3]; 50, 150, 300 mg b.i.d.): dose related
Elevated transaminases >3x upper limit of normal (ULN) ([3]; all dabigatran etexilate-treated patients (432)): 0.9%
Structure (SMILES): CCCCCCOC(=O)NC(=N)c1ccc(NCc2nc3cc(C(=O)N(CCC(=O)OCC)c4ccccn4)ccc3n2C)cc1 [Dabigatran etexilate, 1-methyl-2-[N-[4-(N-n-hexyloxycarbonylamidino)phenyl]aminomethyl]benzimidazol-5-ylcarboxylic acid-N-(2-pyridyl)-N-(2-ethoxycarbonylethyl)amides]
Metabolism by, induction or inhibition of cytochrome P-450 enzymes [1]: not metabolized by and does not induce or inhibit cytochrome P-450 drug metabolizing enzymes
Adverse Events leading to premature discontinuation, rate ([2]; 50 mg b.i.d.): 21.3 % per year
Thromboembolic events ([2]; 50 mg b.i.d.): more than 12 events per 100 years
ALT or AST > 2xULN, rate ([2]; 150 mg b.i.d.): 3.1 % per year
ALT or AST > 3xULN and Bili > 2xULN within 30 days, rate ([2]; 150 mg b.i.d.): 0.4 % per year
ALT or AST > 3xULN, rate ([2]; 150 mg b.i.d.): 1.9 % per year
ALT or AST > 5xULN, rate ([2]; 150 mg b.i.d.): 1.0 % per year
Adverse Events leading to premature discontinuation, rate ([2]; 150 mg b.i.d.): 9.8 % per year
Stroke and Systemic Thromboembolism, rate ([2]; 150 mg b.i.d.): 1.0 % per year
ALT or AST > 2xULN, rate ([2]; 150 mg q.d.): 3.4 % per year
Adverse Events leading to premature discontinuation, rate ([2]; 150 mg q.d.): 13.7 % per year
Thromboembolic events ([2]; 150 mg q.d., per 100 years): about 5 events
ALT or AST > 2xULN, rate ([2]; 300 mg b.i.d.): 4.9 % per year
ALT or AST > 3xULN, rate ([2]; 300 mg b.i.d.): 2.4 % per year
ALT or AST > 5xULN, rate ([2]; 300 mg b.i.d.): 1.2 % per year
Adverse Events leading to premature discontinuation, rate ([2]; 300 mg b.i.d.): 25.6 % per year
Thromboembolic events ([2]; 300 mg b.i.d.): about 1 event per 100 years
ALT or AST > 2xULN, rate ([2]; 300 mg q.d.): 1.5 % per year
ALT or AST > 3xULN and Bili > 2xULN within 30 days, rate ([2]; 300 mg q.d.): 0.5 % per year
ALT or AST > 3xULN, rate ([2]; 300 mg q.d.): 1.5 % per year
ALT or AST > 5xULN, rate ([2]; 300 mg q.d.): 1.5 % per year
Adverse Events leading to premature discontinuation, rate ([2]; 300 mg q.d.): 9.6 % per year
Thromboembolic events ([2]; 300 mg q.d., per 100 years): more than 2 events
ALT or AST > 2xULN, rate ([2]; Total, all doses): 2.9 % per year
ALT or AST > 3xULN and Bili > 2xULN within 30 days, rate ([2]; Total, all doses): 0.4 % per year
ALT or AST > 3xULN, rate ([2]; Total, all doses): 1.7 % per year
ALT or AST > 5xULN, rate ([2]; Total, all doses): 1.1 % per year
Adverse Events leading to premature discontinuation, rate ([2]; Total, all doses): 11.5 % per year

Structure (SMILES): [H]/N=C(/N)c1ccc(NCc2nc3cc(C(=O)N(CCC(=O)O)c4ccccn4)ccc3n2C)cc1 [Dabigatran]
Rate of hemorrhagic stroke ([4]; 110 mg b.i.d.): 0.12 % per year
Stroke, Ischemic or Unspecified, Rate ([4]; 110 mg b.i.d.): 1.35 /100 Person Years
Stroke, systemic embolism, pulmonary embolism, myocardial infarction death or major bleed (net benefit), Rate ([4]; 110 mg b.i.d.): 7.37 /100 Person Years
Extracranial Bleeding, RR ([4]; 110 mg vs. Warfarin): 0.93
First Hospitalization, RR ([4]; 110 mg vs. Warfarin): 0.92
Non-disabling Stroke Modified Rankin 0-2, RR ([4]; 110 mg vs. Warfarin): 0.87
Stroke or systemic embolism, RR ([4]; 110 mg vs. Warfarin): 0.91
Stroke, Hemorrhagic, RR ([4]; 110 mg vs. Warfarin): 0.31
Stroke, RR ([4]; 110 mg vs. Warfarin): 0.92
Stroke, systemic embolism, pulmonary embolism, myocardial infarction death or major bleed (net benefit), RR ([4]; 110 mg vs. Warfarin): 0.92
Rate of hemorrhagic stroke ([4]; 150 mg b.i.d.): 0.10 % per year
Stroke, systemic embolism, pulmonary embolism, myocardial infarction death or major bleed (net benefit), Rate ([4]; 150 mg b.i.d.): 7.22 /100 Person Years
Stroke, Ischemic or Unspecified, RR ([4]; 150 mg vs. 110 mg): 0.68
Stroke, RR ([4]; 150 mg vs. 110 mg): 0.70
Stroke, systemic embolism, pulmonary embolism, myocardial infarction death or major bleed (net benefit), RR ([4]; 150 mg vs. 110 mg): 0.98
First Hospitalization, RR ([4]; 150 mg vs. Warfarin): 0.97
Major Bleeding, Other Major, RR ([4]; 150 mg vs. Warfarin): 1.07
Non-disabling Stroke Modified Rankin 0-2, RR ([4]; 150 mg vs. Warfarin): 0.62
Stroke or systemic embolism, RR ([4]; 150 mg vs. Warfarin): 0.66
Stroke, Hemorrhagic, RR ([4]; 150 mg vs. Warfarin): 0.26
Stroke, Ischemic or Unspecified, RR ([4]; 150 mg vs. Warfarin): 0.76
Stroke, RR ([4]; 150 mg vs. Warfarin): 0.64
Stroke, systemic embolism, pulmonary embolism, myocardial infarction death or major bleed (net benefit), RR ([4]; 150 mg vs. Warfarin): 0.90
Hepatotoxicity in serial measurement of liver function tests ([4]; in vivo): no evidence of hepatotoxicity
Fatal bleeding events, rate ([2]; all doses): 0.5 % per year
LFT abnormality ALT/ULN [2, 5]: >5x x ULN (4×) and >5x^# x ULN (2×) and >3x x ULN (5×) and >3x^# x ULN
LFT abnormality AST/ULN [2, 5]: >5x^# x ULN (4×) and >5x x ULN (4×) and >3x x ULN (5×)
Change in D-dimer levels ([3]; 12 weeks): comparable to warfarin
